Consider one compound from patent US20250339396A1 (COSMAS THERAPEUTICS DEVELOPMENT INC., priority 2021, published 2025).

Data set [1] in a line: Oral bioavailability and brain penetrance of UCM765 and UCM924.
Data set [2] is described as follows: Pharmacokinetic study in male rats (UCM924 measured in plasma). The data set is classed as in vivo. The settings on record: Sprague-Dawley, rat, po, UCM924 plasmatic level, UCM924 20 mg/kg per os. On the procedure: In vivo pharmacokinetic studies of prodrug D were carried in male rats (Sprague-Dawley, weight 210-214 grams) and male dogs (Beagles, weight 8960-9820 grams). Animals were housed under standard conditions and had free access to water and standard laboratory diet. Care and husbandry of animals were in conformity with the institutional guidelines, in compliance with national and international laws and policies (EEC Council Directive 86/609, OJL 358m, 1, Dec. 122, 1987; NIH Guide for the care and Use of Laboratory Animals, NIH Publication No. 86-23, 1985). The compounds were dissolved in water containing 40% PEG 400 at a concentration of 15 mg/ml (clear solution) for the PO dose for Dog, or in water containing 40% PEG 400 at a concentration of 12.5 mg/ml (clear solution) for the PO dose for Rat. Rats were randomly assigned to treatment groups (n=3) and received a single oral administration (50 mg/kg) of Prodrug D and the level of the active metabolite UCM924 was then measured. Serial blood samples (200 uL) were collected from caudal vein at 5, 15, 30, 60, 120, 240, 360, 480 and 1440 min after PO administration. Blood samples were collected into a prechilled commercial tube (Jiangsu Kangjian medical supplies co., LTD) containing Potassium (K2) EDTA (0.85-1.15 mg). […] UCM924 (20 mg/kg) was also administered per os in rats and IV in dogs (2 mg/kg) and it was measured in plasma. […]

The conditions of data set [3]: in vivo; cited from earlier work.
Data set [4] in a line: Pharmacokinetic study in male Beagle dogs (UCM924 measured in plasma). The data set is classed as in vivo. As to conditions: dog, UCM924 plasmatic level, UCM924 2 mg/kg IV. On the procedure:
In vivo pharmacokinetic studies of prodrug D were carried in male rats (Sprague-Dawley, weight 210-214 grams) and male dogs (Beagles, weight 8960-9820 grams). Animals were housed under standard conditions and had free access to water and standard laboratory diet. Care and husbandry of animals were in conformity with the institutional guidelines, in compliance with national and international laws and policies (EEC Council Directive 86/609, OJL 358m, 1, Dec. 122, 1987; NIH Guide for the care and Use of Laboratory Animals, NIH Publication No. 86-23, 1985). The compounds were dissolved in water containing 40% PEG 400 at a concentration of 15 mg/ml (clear solution) for the PO dose for Dog, or in water containing 40% PEG 400 at a concentration of 12.5 mg/ml (clear solution) for the PO dose for Rat. Dogs were randomly assigned to treatment groups (n=3) and received a single oral administration (15 mg/kg) through oral gavage of Prodrug D and the level of the active metabolite UCM924 was then measured. Serial blood samples (200 uL) were collected from caudal vein at 5, 15, 30, 60, 120, 240, 360, 480 and 1440 min after PO administration. […] UCM924 (20 mg/kg) was also administered per os in rats and IV in dogs (2 mg/kg) and it was measured in plasma. […]

Data set [5] is described as follows: Stability of Prodrug D in solvents by HPLC. As to conditions: HPLC Method 2. The data set is classed as physicochemical. As for the experimental part: For this test, we used HPLC with different solvent systems. […] Therefore, after initial assessment, this method was used for the remaining tests. Prodrug D or UCM924 (comparator) were dissolved in the different solvents listed in the table below and, after the waiting period indicated, HPLC tests were carried out according to the above. The results are shown in the table below, in which the percentages represent the quantity of prodrug D or UCM924 detected in the samples.

The conditions of data set [6]: in vivo; cited from earlier work. The source holds these as a separate data set.

On to `CC(=O)NCCN(c1ccc(F)cc1)c1cccc(Br)c1` [UCM924, N-{2-[(3-bromophenyl)-(4-fluorophenyl)amino]ethyl}acetamide], for which the Kp in data set [1] (brain) was 2.5. This compound also registered a bioavailability in data set [1] (in vivo, po) of 6%. Besides, the AUC(0-t) in data set [2] is 97.7 ± 61 ng·h/mL; in data set [4], 1690 ± 275 ng·h/mL. This compound also showed a Cmax in data set [2] of 42 ± 34 ng/mL. Further, in data set [3], the “antinociceptive properties in tests for chronic neuropathic pain” value was “potent antinociceptive properties”. In data set [4], this compound showed a half-life of 1.79 ± 0.4 h. Also, the “quantity detected in the sample by HPLC” value worked out at 14.79% in data set [5] (1N HCl, overnight at rt, pH ~0); 40.16% in data set [5] (40% PEG400:60% H2O, overnight at rt, pH ~7.0); 80.09% in data set [5] (H2O, overnight at rt, pH ~7.0); 62.33% in data set [5] (Saturated NaHCO3aq, 2 h at rt, pH ~8.5). Moreover, the “motor impairments in the RotaRod test” value in data set [6] was “did not produce any motor impairments”.

What is called bioavailability is dose-corrected exposure relative to a reference, in per cent. The AUC(0-t) is exposure summed from dosing to a finite time, without extrapolation to infinity. A low value points to less exposure. As a reminder, the Cmax is the maximum level reached in the sampled fluid or tissue. As usually defined, the half-life is the time in which the quantity being followed falls by half.
